Measurements from patent US6395762B1, “Phenyl amino squarate and thiadiazole dioxide beta-3 adrenergic receptor agonists” (American Home Products Corporation, priority 2000, dated 2002).
Counter-ions that a name gives are not always drawn. Like-named read-outs stand apart in the source and are kept apart here.

Key:
human β3-AR = biological target: T1, human β3-AR (Homo sapiens, UniProt P13945); experiment: cAMP accumulation (SPA) in CHO cells transfected with human β3-AR; assay type: cell-based; conditions: for IA(β3): maximal response of compound relative to maximal response of isoproterenol at 10^−5 M
T1 construct: Full-length β3-AR clones (402 amino acids) containing the last 6 amino acids of hβ3-AR; expressed in transfected cells; host or cells: CHO (Chinese hamster ovary) cells
T1 sequence (P13945 whole entry): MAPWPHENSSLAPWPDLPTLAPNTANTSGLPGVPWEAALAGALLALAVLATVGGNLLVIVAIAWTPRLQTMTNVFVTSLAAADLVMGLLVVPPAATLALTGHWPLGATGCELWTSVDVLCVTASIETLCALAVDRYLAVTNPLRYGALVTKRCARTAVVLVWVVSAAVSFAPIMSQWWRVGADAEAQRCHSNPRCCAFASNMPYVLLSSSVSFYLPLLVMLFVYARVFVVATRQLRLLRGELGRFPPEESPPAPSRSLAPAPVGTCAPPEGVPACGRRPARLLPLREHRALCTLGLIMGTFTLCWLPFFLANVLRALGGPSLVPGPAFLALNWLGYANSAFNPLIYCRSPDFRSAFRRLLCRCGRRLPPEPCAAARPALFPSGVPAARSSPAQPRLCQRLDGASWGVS
Procedure: The ability of the compounds of this invention to treat or inhibit disorders related to insulin resistance or hyperglycemia was confirmed with representative compounds of this invention in the following standard pharmacological test procedures, which measured the binding selectivity of the β1-, β2-, and β3-AR. Binding to the receptors was measured in Chinese Hamster ovary (CHO) cells that were transfected with β1-, β2-, and β3-AR's. The following briefly summarizes the procedures used and results obtained.
Cloning of Human β3-AR Genomic DNA: cDNA was constructed by ligating four polymerase chain reaction (PCR) products using the following primers: an ATG-Narl fragment, sense primer 5′-[…]3′ and anti-sense primer 5′[…]3′; a Narl-Accl fragment, 5′[…]3′ as sense and 5′[…]3′ as anti-sense primer; an Accli—Styl fragment, sense primer 5′[…]3′ and anti-sense primer 5′[…]3′ and a Styl-TAG fragment, with sense primer 5′ […]3′ and anti-sense primer 5′ […]3′ . The corresponding primer sequences are described in Mantzoros, C. S., et.al., Diabetes, 1996, 45, 909-914. The four fragments are ligated into a pUC 18 plasmid (Gibco-BRL) and sequenced. Full-length β3-AR clones (402 amino acids) containing the last 6 amino acids of hβ3-AR are prepared with the β3-βARpcDNA3 from ATTC.
Binding Procedure: Clones expressing receptor levels of 70 to 110 fmoles/mg protein were used in the test procedures. CHO cells were grown in 24-well tissue culture plates in Dulbecco's Modified Eagle Media with 10% fetal bovine serum, MEM non-essential amino acids, Penicillin—Streptomycin and Geneticin. On the day of test procedure, growth medium was replaced with preincubation media (Dulbecco's Modified Eagle Media) and incubated for 30 minutes at 37° C. Pre-incubation medium was replaced with 0.2 ml treatment medium containing DMEM media containing 250 μM IBMX (isobutyl-1-methylxantine) plus 1 mM ascorbic acid with test compound dissolved in DMSO. Test compounds were assayed over a concentration range of 10^−9 M to 10^−5 M for β3-AR transfected cells and 10^−8 to 10^−4 M for β1-AR and β2-AR transfected cells. Isoproterenol (10^−5 M) was used as an internal standard for comparison of activity. Cells were incubated at 37° C. on a rocker for 30 min with the β3-AR transfected cells and 15 min with β1-AR and β2-AR transfected cells. Incubation was stopped by the addition of 0.2N HCl and the acid was neutralized with 2.5N NaOH. The plates, containing the cells and neutralized media, were stored at −20° C. until ready to test for cAMP using the SPA test kit (Amersham).
Data Analysis and Results: Data collected from the SPA test procedure were analyzed as percent of the maximal isoproterenol response at 10^−5 M. Activity curves were plotted using the SAS statistical and graphics software.

[1] = CHO cells transfected with human β3-AR, cAMP by SPA, 30 min at 37° C., 10^−9 M to 10^−5 M, read-out: EC50(β3)
[2] = CHO cells transfected with human β3-AR

SMILES	EC50 (human β3-AR; [1]) [nM]	IA(β3) (human β3-AR; [2])	melting point	EC50 (human β3-AR) [nM]
CCCCCCNC1=NS(=O)(=O)N=C1Nc1cccc(CC(C)NC[C@H](O)c2cccc(Cl)c2)c1 (stereo partly drawn) [Compound 9, (1R)-1-(3-Chloro-phenyl)-2-{2-[3-(4-hexylamino-1,1-dioxo-1H-1-.lambda(6) .-[1,2,5]thiadiazol-3-ylamino)-phenyl]-1-methyl-ethylamino}-ethanol]	204	0.74	90 to 96 °C	
CCCCCCCCNC1=NS(=O)(=O)N=C1Nc1ccc(CC(C)NC[C@H](O)c2ccc(O)c(NS(C)(=O)=O)c2)cc1 (some centres unmarked) [Compound 6]	2	1.26	120 °C (dec.)	
CCCCCCCCCCNc1c(Nc2ccc(CC(C)NC[C@H](O)COc3ccccc3)cc2)c(=O)c1=O (some centres unmarked) [Compound 23]	1360	0.64	144 to 155 °C	
CCCCCCCCNC1=NS(=O)(=O)N=C1Nc1ccc(CC(C)NC[C@H](O)COc2ccccc2)cc1 (stereo partly drawn) [Compound 22, (2S)-1-{[1-methyl-2-(4-{[4-(octylamino)-1,1-dioxido-1,2,5-thiadiazol-3-yl]amino}phenyl)ethyl]amino}-3-phenoxypropan-2-ol]		0.39	77 to 82 °C	
COc1ccc(CCNC2=NS(=O)(=O)N=C2Nc2ccc(CC(C)NC[C@H](O)COc3ccc(O)cc3)cc2)cc1 (stereo partly drawn) [Compound 36, (S)-4-{2-hydroxy-3-[2-(4-{4-[2-(4methoxy-phenyl)-ethylamino]-1 1-dioxo-1H-1.lambda(6).-[1,2,5]thiadiazol-3-ylamino}-phenyl)-1-methyl-ethylamino]-propoxy}-phenol]	5	0.91	95 to 100 °C	
CCCCCCCCNc1c(Nc2ccc(CC(C)NC[C@H](O)COc3cccc4[nH]c5ccccc5c34)cc2)c(=O)c1=O (stereo partly drawn) [Compound 16, 3-(4-{2-[(2S)-3-(9H-Carbazol-4-yloxy)-2-hydroxy-propylamino]-propyl}-phenylamino)-4-octylamino-cyclobut-3-ene-1,2-dione]	233	0.47	125 to 131 °C	
CCCCNc1c(Nc2ccc(CC(C)NC[C@H](O)c3cccc(Cl)c3)cc2)c(=O)c1=O (stereo partly drawn) [Compound 1, 3-Butylamino-4-(4-{2-[(2R)-2-(3-chloro-phenyl)-2-hydroxy-ethylamino]-propyl}-phenylamino)-cyclobut-3-ene-1,2-dione]		0.16	176 to 179 °C	115
CC(C)(Cc1ccc(NC2=NS(=O)(=O)N=C2NCC(c2ccccc2)c2ccccc2)cc1)NC[C@H](O)COc1ccc(OCc2ccccc2)cc1 [Compound 28]	1420	0.83	222.5 to 224.5 °C (dec.)	
CCCCCCCCNc1c(Nc2ccc(CC(C)NC[C@H](O)c3cccc(Cl)c3)cc2)c(=O)c1=O (stereo partly drawn) [Compound 10, 3-(4-{2-[(2R)-2-(3-Chloro-phenyl)-2-hydroxy-ethylamino]-propyl}-phenylamino)-4-octylamino-cyclobut-3-ene-1 2-dione]	87	0.71	173 to 175 °C	
CCCCCCCCNc1c(Nc2ccc(CC(C)NC[C@H](O)COc3ccccc3)cc2)c(=O)c1=O (stereo partly drawn) [Compound 24, 3-{4-[2-((2S)-2-Hydroxy-3-phenoxy-propylamino)-propyl]-phenylamino}-4-octylamino-cyclobut-3-ene-1,2-dione]	81	0.41	146 to 155 °C	
CC(Cc1ccc(NC2=NS(=O)(=O)N=C2NCCc2ccc(F)cc2)cc1)NC[C@H](O)COc1ccc(O)cc1 (some centres unmarked) [Compound 37]	6	0.87	126 to 131 °C	
CCCCCCCCCCNc1c(Nc2ccc(CC(C)NC[C@H](O)COc3ccc(O)cc3)cc2)c(=O)c1=O (some centres unmarked) [Compound 15]	86	0.97	130 to 132 °C	
CCCCCCCCNC1=NS(=O)(=O)N=C1Nc1ccc(CCNC[C@H](O)COc2ccc(O)cc2)cc1 [Compound 5, 4-((2S)-2-Hydroxy-3-{2-[4-(4-octylamino-1,1-dioxo-1H-1.lambda(6).-[1,2,5]thiadiazol-3-ylamino)-phenyl]-ethylamino}-propoxy)-phenol]	18	0.75	98 °C (dec.)	
CC(Cc1ccc(NC2=NS(=O)(=O)N=C2NCC2(c3ccccc3)CCCC2)cc1)NC[C@H](O)COc1ccc(OCc2ccccc2)cc1 (stereo partly drawn) [Compound 30, (2S)-1-(4-Benzyloxy-phenoxy)-3-[2-(4-{1 ,-dioxo-4-[(1-phenyl-cyclopentylmethyl)-amino]-1H-1(lambda(6))-[1,2,5]thiadiazol-3-ylamino}-phenyl)-1-methyl-ethylamino]-propan-2-ol]	116	0.93	103 to 105 °C	
CCCCCCCCCCNc1c(Nc2ccc(CCCNC[C@H](O)COc3cccc4[nH]c5ccccc5c34)cc2)c(=O)c1=O [Compound 17, 3-(4-{[(2S)-3-(9H-Carbazol-4-yloxy)-2-hydroxy-propylamino]-propyl}-phenylamino)-4-decylamino-cyclobut-3-ene-1,2-dione]		0.31	225 °C	
CCCCCCNC(=O)Nc1ccc(C2(CNC3=NS(=O)(=O)N=C3Nc3ccc(CC(C)(C)NC[C@H](O)COc4ccc(O)cc4)cc3)CCCC2)cc1 [Compound 8, 1-Hexyl-3-[4-(1-{[4-(4-{2-[(2S)-2-hydroxy-3-(4-hydroxy-phenoxy)-propylamino]-2-methyl-propyl}-phenylamino)-1,1-dioxo-1H-1.lambda(6).-{1,2,5]thiadiazol-3-ylamino]-methyl}-cyclopentyl)-phenyl]-urea]	10	0.91	154.5 to 158.5 °C	
CCCCCCCCCCNC1=NS(=O)(=O)N=C1Nc1ccc(CC(C)NC[C@H](O)c2ccc(O)c(NS(C)(=O)=O)c2)cc1 (stereo partly drawn) [Compound 27, N-[5-((1R)-2-{2-[4-(4-Decylamino-1,1-dioxo-1H-1(lambda(6))-[1 2,5]thiadiazol-3-ylamino)-phenyl]-1-methyl-ethylamino}-1-hydroxy-ethyl)-2-hydroxy-phenyl]-methanesulfonamide]	9	1.27	120 °C (dec.)	
CCCCCCCCNC1=NS(=O)(=O)N=C1Nc1ccc(CC(C)NC[C@H](O)COc2cccc3[nH]c4ccccc4c23)cc1 (stereo partly drawn) [Compound 21, (2S)-1-(9H-Carbazol-4-yloxy)-3-{1-methyl-2-[4-(4-octylamino-1,1-dioxo-1H-1(lambda(6))-[1,2,5]thiadiazol-3-ylamino)-phenyl]-ethylamino}-propan-2-ol]	64	0.64	121 to 124 °C	
CCCCCCCCNC1=NS(=O)(=O)N=C1Nc1ccc(CC(C)NC[C@H](O)COc2ccc(O)cc2)cc1 (stereo partly drawn) [Compound 12, 4-((2S)-2-Hydroxy-3-{1-methyl-2-[4-(4-octylamino-1,1-dioxo-1H-1-.lambda(6).-[1,2,5]thiadiazol-3-ylamino)-phenyl]-1-ethylamino}-propoxy)-phenol]	11	1.45	203.5 to 206 °C	
CCCCCCCCNC1=NS(=O)(=O)N=C1Nc1cccc(CC(C)NCC(O)c2cccc(Cl)c2)c1 [Compound 2, (1R)-1-(3-Chloro-phenyl)-2-{1-methyl-2-[3-(4-octylamino-1,1-dioxo-1H-1-.lambda(6).-[1,2,5]thiadiazol-3-ylamino)-phenyl-]-ethylamino}-ethanol]	198	0.42	90 to 96 °C	
CCCCCCCCCCNC1=NS(=O)(=O)N=C1Nc1ccc(CC(C)NC[C@H](O)COc2ccc(O)cc2)cc1 (stereo partly drawn) (as salt: HCl) [Compound 25, 4-((2S)-3-{2-[4-(4-Decylamino-1,1-dioxo-1H-1(lambda(6))-[1,2,5]thiadiazol-3-ylamino)-phenyl]-1-methyl-ethylamino}-2-hydroxy-propoxy)-phenol]			146 to 155 °C	
